The text below walks through data of article PMC8746705, “Comparison of Experimental Strategies to Study L-Type Amino Acid Transporter 1 (LAT1) Utilization by Ligands” (Molecules, 2021).

Read-outs that look alike come from different tables or passages of the source.

The target of series [1] is T1, LAT1 (Mus musculus, UniProt Q9Z127). In words: Concentration-dependent cellular uptake into BV2 cells, Eadie–Hofstee analysis, Transport Type 1 (LAT1). The format is cell-based. The procedure: For the concentration-dependent cellular uptake experiments, the BV2 cells on 24-well plates were incubated with studied compounds (1–200 μM) in pre-warmed HBSS buffer (250 μL) at 37 °C for 30 min. The experiment was then carried out as described for the time-dependent uptake above and the concentration of studied compounds in the cell lysate was analyzed by the LC-MS/MS methods described above and the results were normalized to the total protein concentration. The distinct transport mechanisms were separated from the Michaelis-Menten kinetics by using Eadie–Hofstee plot.
(§1) The studied compounds (1–15) were analyzed by using Agilent 1200 Series Rapid Resolution LC System together with an Agilent 6410 Triple Quadrupole Mass Spectrometer equipped with an electrospray ionization source (Agilent Technologies, Santa Clara, CA, USA). The chromatographic separations of analytes were achieved by using a reversed-phase Zobrax SB-C18 column (50 mm × 2.1 mm, 1.8 μm; Agilent Technologies, Santa Clara, CA, USA) by eluting the samples with 0.1% formic acid in water (A) and 0.1% formic in ACN (B). Labetalol and diclofenac were used as internal standards (ISTD) for the prodrugs and parent drugs, respectively. The transitions used for the quantification at the positive ion mode and chromatographic conditions of each compound and their parent drugs are listed in Table S1. The methods of compounds 1–11 have been reported earlier, while the methods of compounds 12–15 are reported herein for the first time.

Series [2] is described as follows: Stability / bioconversion of prodrugs to parent drugs (biological media, 0.1 M NaOH cell lysing). The format is in vitro ADME. Conditions: cell lysate samples for LC-MS/MS (Table S1 footnote). From the text: LAT1-utilizing prodrugs 1–15 (Figure 1) were selected for this study based on their ability to utilize LAT1 expressed in cells used in our previous studies. Therefore, the syntheses of these compounds are not described herein as they have been reported earlier. These compounds include prodrugs of an investigational immunosuppressive agent, perforin inhibitor (1), non-steroidal anti-inflammatory drugs (NSAIDs), ketoprofen (2–4, 14), salicylic acid (8), flurbiprofen (9 and 12), ibuprofen (10 and 13) and naproxen (11 and 15), as well as the polyphenolic antioxidant, ferulic acid (5–7). […] In addition, all NSAID prodrugs (compounds 2–4, 9–15) were prepared from their pure S-enantiomers. Prodrugs of ferulic acid (compounds 5–7) were mixtures of E- and […], which were interconvertible over time. […] Therefore, both prodrug and the released parent drug proportions were quantified and taken into account when calculating concentrations transported into the cells.
1. LC-MS/MS ionization parameters of compounds 1-15
Table S1. Ionization parameters for the LC-MS/MS methods of the studied compounds.
Precursor Product Fragmentor Collision Flow rate Gradient LLOQ
Compound ion ion(s) Voltage (V) Energy (mL/min) (A:B) (nM) […]
perforin inhibitor 1a and therefore, their transitions with a positive ion mode are reported only as KPF or as a prodrug and parent drug in parentheses. […]
drugs (ferulic acid (FA), flurbiprofen (FLB), ibuprofen (IBU), and naproxen (NPX), respectively), whose transitions with a negative ion mode are reported below the studied LAT1 -utilizing compounds i n parentheses.

Series [3] has as its target T1, LAT1. In words: Cellular uptake of compounds in the presence of LAT1-inhibitor (KMH-233). The format is cell-based. Conditions: 100 µM compound, 100 µM KMH-233, 30 min, BV2. The procedure:
The competitive uptake in the presence of LAT1-inhibitor (KMH-233) was carried out as described above with HBSS buffer solution containing 100 µM of the studied compounds. The cells were pre-incubated with 100 µM LAT1-inhibitor for 10 min and the incubation mixture was removed before adding the studied compound and LAT1-inhibitor on the cells. The competitive uptake (30 min) with the inhibitor was then carried out as the normal uptake described above. The amounts of studied compounds were analyzed by the LC-MS method and calculated from the spiked standard curve and normalized with the protein concentrations.

The nature of series [4]: Time-dependent cellular uptake of compounds into BV2 cells (LC-MS/MS). Conditions: mouse, BV2 microglia cells, 100 µM compound, 1–60 min, mean ± SD, n = 3, read-out: T½ of cellular uptake. The format is cell-based, mouse. The procedure: (§2) For the time-dependent cellular uptake experiments, the BV2 cells on 24-well plates were incubated with studied compounds (100 μM) in a pre-warmed HBSS buffer (250 μL) at 37 °C for 1–60 min. Subsequently, the cells were washed three times with an ice-cold HBSS and lysed with 250 μL of NaOH (0.1 M) for 60 min. The lysates were diluted with acetonitrile (ACN) including the selected internal standard (diclofenac to all compounds) with a ratio of 1:3 and centrifuged at 10,000× g for 10 min. The samples were analyzed by the liquid chromatography-tandem mass spectrometric (LC-MS/MS) methods as described below. The concentrations of each compound in cell lysates were calculated from the standard curve that was prepared by spiking known amounts of compounds to ACN including the selected internal standard and then normalized with protein concentration. The protein concentrations on each plate were determined as a mean of three samples by Bio-Rad Protein Assay, based on the Bradford dye-binding method, using bovine serum albumin (BSA) as a standard protein and measuring the absorbance (595 nm) by multiplate reader (EnVision, Perkin Elmer, Inc., Waltham, MA, USA).
as §1

The subject of series [5] is immortalized mouse microglia (BV2). Described as above. The format is cell-based. The conditions noted are these: 100 µM compound, 1–60 min, mean ± SD, n = 3. How it is done: as §2, §1
Series [6] concerns the target T1, LAT1. Further details: method as in earlier work. The conditions noted are these: BV2 cells; probe [14C]-L-Leu; mean ± SD; published earlier; ref [31] or [33]; read-out: IC50 of [14C]-L-Leu uptake; cited from earlier work.
Series [7] has as its target T1, LAT1. In words: Cis-inhibition of radiolabelled LAT1-probe substrate uptake into BV2 cells. Conditions: 5 min, mean ± SD. The format is cell-based. How it is done:
(§3) After removal of the culture medium, the BV2 cells were carefully washed with pre-warmed HBSS (Hank’s balanced salt solution) containing 125.0 mM choline chloride, 4.8 mM KCl, 1.2 mM MgSO4, 1.2 mM KH2PO4, 1.3 mM CaCl2, 5.6 mM glucose, and 25.0 mM HEPES (pH 7.4 adjusted with 1 M NaOH). Pre-incubation was done with 500 μL of pre-warmed HBSS at 37 °C for 10 min before adding substrates (250 μL in HBSS) for the uptake experiments.
The ability of compounds 1–15 to inhibit the uptake of a known LAT1 substrate [^14C]-L-leucine was then evaluated by incubating the cells at 37 °C for 5 min in uptake buffer pH 7.4 (250 μL) containing 0.2 µCi/mL of [^14C]-L-leucine, or 2 µCi/mL of [^3H]-L-methionine, [^3H]-L-tryptophan or [^3H]-L-kynurenine (PerkinElmer, Waltham, MA, USA) and 0.1–1000 μM of the studied compound (or HBSS as blank). After incubation, the uptake was stopped by adding 250 µL of ice-cold HBSS, and the cells were washed two times with ice-cold HBSS. The cells were then lysed with 500 μL of NaOH (0.1 M) for 60 min and the lysate was mixed with 3.5 mL of Emulsifier safe cocktail (Ultima Gold, PerkinElmer, Waltham, MA, USA). The radioactivity in the cells was measured by liquid scintillation counting (MicroBeta^2 counter, PerkinElmer Waltham, MA, USA). Half of the maximum inhibitory concentration (IC50) values were calculated by nonlinear regression analysis (fitting the curve to log (concentration) vs. remaining normalized […]).

The target of series [8] is T1, LAT1. In words: Inhibition type of [14C]-L-Leu uptake (Hanes-Woolf plots) in BV2 cells. The format is cell-based. The conditions noted are these: for Vmax of [14C]-L-Leu uptake: 0.010–0.20 µM [14C]-L-Leu in the presence of the compound at its IC50, mean ± SD, n = 3–4; for IC50: Table 2, compound concentration used in the inhibition type study, corresponding to IC50 of [14C]-L-Leu uptake; for Inhibition Type: of [14C]-L-Leu uptake, concluded from Km and Vmax. The procedure: as §3
To evaluate the inhibition type of studied compounds, the BV2 cells were incubated with 0.010–0.20 μM [^14C]-L-leucine together with the studied compound. The concentration of compounds was selected according to the compound-specific IC50 values. The experiment was then carried out as described for the [^14C]-L-leucine uptake above and the radioactivity was measured by liquid scintillation counting. Hanes-Woolf plots were created by setting the ratio of initial substrate concentration to the reaction velocity ([S]/v) against [^14C]-L-leucine concentration (µM). The linear regression was used to calculate Km value (negative value of x-intercept) and Vmax value (1/slope) for [^14C]-L-leucine.

The target of series [9] is T1, LAT1. In words: LAT1 function followed between cell passages with [14C]-L-leucine. The conditions noted are these: BV2 cells, passages 8–15.
The mark [10] stands for this setting: 1–200 µM, 30 min, BV2, Eadie–Hofstee, mean ± SD, n = 3.
Where [11] appears, read: probe [3H]-L-Kynu, n = 3–4, read-out: IC50 of [3H]-L-Kynu uptake.
Where [12] appears, read: probe [3H]-L-Met, n = 3–4, read-out: IC50 of [3H]-L-Met uptake.
The mark [13] stands for this setting: probe [3H]-L-Trp, n = 3–4, read-out: IC50 of [3H]-L-Trp uptake.

T1 sequence (Q9Z127 whole entry): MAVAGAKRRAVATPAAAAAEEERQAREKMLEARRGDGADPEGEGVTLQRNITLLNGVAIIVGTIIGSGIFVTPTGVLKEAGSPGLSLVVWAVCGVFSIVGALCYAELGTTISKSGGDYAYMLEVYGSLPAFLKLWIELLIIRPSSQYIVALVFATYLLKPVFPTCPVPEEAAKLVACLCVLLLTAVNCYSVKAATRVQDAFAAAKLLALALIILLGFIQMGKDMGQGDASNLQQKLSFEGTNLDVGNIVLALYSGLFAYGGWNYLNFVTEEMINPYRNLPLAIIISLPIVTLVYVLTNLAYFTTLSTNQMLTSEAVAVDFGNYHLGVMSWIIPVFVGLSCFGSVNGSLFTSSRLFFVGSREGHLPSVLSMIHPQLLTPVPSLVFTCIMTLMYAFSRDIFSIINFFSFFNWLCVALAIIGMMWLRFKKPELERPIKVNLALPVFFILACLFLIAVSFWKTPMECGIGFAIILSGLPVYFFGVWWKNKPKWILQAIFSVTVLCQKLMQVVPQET
T1 sequence (P10852 whole entry partner): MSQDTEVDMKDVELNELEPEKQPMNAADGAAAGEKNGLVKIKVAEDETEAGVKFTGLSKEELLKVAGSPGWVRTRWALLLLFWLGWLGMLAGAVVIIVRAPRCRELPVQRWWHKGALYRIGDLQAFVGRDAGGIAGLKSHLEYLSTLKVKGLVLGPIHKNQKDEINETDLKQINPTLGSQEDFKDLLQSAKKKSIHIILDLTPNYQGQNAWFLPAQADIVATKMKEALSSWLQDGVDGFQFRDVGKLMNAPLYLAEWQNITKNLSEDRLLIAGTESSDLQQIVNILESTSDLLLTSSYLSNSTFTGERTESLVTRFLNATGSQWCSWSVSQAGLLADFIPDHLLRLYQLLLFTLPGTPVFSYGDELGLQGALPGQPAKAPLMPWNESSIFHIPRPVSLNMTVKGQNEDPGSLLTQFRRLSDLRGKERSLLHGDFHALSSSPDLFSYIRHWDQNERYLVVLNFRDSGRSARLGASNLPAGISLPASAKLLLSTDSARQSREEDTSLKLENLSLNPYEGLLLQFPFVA

A word on the Km: it is the substrate concentration at which the rate is half of its maximum. By IC50 is commonly meant the midpoint of a concentration-inhibition curve. With `CC(C)Cc1ccc([C@H](C)C(=O)Oc2cccc(C[C@H](N)C(=O)O)c2)cc1` [Compound 13], the Michaelis-Menten constant (Km) in series [1] (setting [10]) was 8.2 ± 1.8 µM. Further, in series [1] (setting [10]), the “Transport Type 1 (LAT1) Vmax” value came to 63 ± 8 pmol/mg/min. The “Conversion to parent drug in the analysed samples” value in series [2] is listed as “partly converted to their parent”. The “Cellular uptake in the presence of LAT1-inhibitor” value in series [3] is recorded as “inhibited significantly”. The half-life at 100 μM in series [4] was 3.6 ± 1.47 min. The Max. cellular uptake in series [5] is given as 25.90 ± 2.41 nmol/mg of protein. Also, the IC50 is 5.3 ± 1.2 µM in series [6]; 9.7 ± 1.2 µM in [7] (setting [11]); 9.8 ± 1.4 µM in [7] (setting [12]); 36.3 ± 1.2 µM in series [7] (setting [13]); 5 µM in series [8]. Moreover, the “Vmax of [14C]-L-Leu uptake” value in series [8] (BV2) worked out at 2.186 ± 0.231 nmol/min/mg. For the same compound, in series [8] (BV2), the “Inhibition Type” value was “Mixed type”.

Take `C[C@H](C(=O)OCc1ccc(C[C@@H](N)C(=O)O)cc1)c1cccc(C(=O)c2ccccc2)c1` [Compound 14]: the “Cellular uptake” value in series [1] (BV2 cells) is on record as “highest cellular uptake”. The “Conversion to parent drug in the analysed samples” value in series [2] was “fully converted into ketoprofen”. Moreover, the “Cellular uptake in the presence of LAT1-inhibitor” value in series [3] is on record as “only reductive trends were seen”. The half-life at 100 μM in [4] turned out to be 2.2 ± 0.62 min. For the same compound, the Max. cellular uptake in series [5] was 10.20 ± 0.61 nmol/mg of protein. Also, the IC50 is 52.9 ± 1.3 µM in series [6]; 91.5 ± 1.2 µM in [7] (setting [11]); 32 ± 1.4 µM in series [7] (setting [12]); 37.6 ± 1.7 µM in series [7] (setting [13]); 53 µM in series [8]. The “Vmax of [14C]-L-Leu uptake” value in series [8] (BV2) worked out at 2.622 ± 0.268 nmol/min/mg. The “Inhibition Type” value in series [8] (BV2) is “Mixed type”.

On to `CC(C)C[C@H](N)C(=O)O` [L-Leu (Crtl), L-leucine, reference compound], for which the “Vmax of [14C]-L-leucine uptake” value in series [9] was 0.84 ± 0.12 nmol/min/mg protein. Moreover, the Km in series [9] (read-out: Km of [14C]-L-leucine uptake) is 85.8 ± 19.4 µM; in series [8] (0.010–0.20 µM [14C]-L-Leu alone, no compound, BV2, read-out: Km of [14C]-L-Leu uptake (control)) it was 0.115 ± 0.007 µM. Moreover, the “Vmax of [14C]-L-Leu uptake (control)” value in series [8] (0.010–0.20 µM [14C]-L-Leu alone, no compound, BV2) stood at 3.403 ± 0.055 nmol/min/mg.
